Measured values: patent US11389544B2, “Formation of functionalized cancer targeting nanoparticles by supramolecular co-assembly” (RAMOT AT TEL-AVIV UNIVERSITY LTD., priority 2016, dated 2022)

Tested on: human pancreatic cancer cells (Panc-1)
Assay: Live cell imaging by confocal microscopy, binding/uptake to Panc-1 cells
Assay type: cell-based
Settings: Panc-1, 2 h incubation, carboxyfluorescein loaded
Procedure: Carboxyfluorescein was encapsulated during the preparation of the nanoparticles. Following two hours of incubation with Panc-1 cancer cells, the cells were treated with concanavalin A (Con A) Alexa Fluor 647 conjugate. Live cell imaging analysis was performed by confocal microscopy (FIGS. 8 and 13). […] These findings support the proposed model for the co-assembly of the two peptides. As assumed, the co-assembly with Boc-FF which serves as a spacer, enabled the binding of PTR analog to the somatostatin receptor (FIG. 2b).
Panc-1 and HEK-293T cells were cultured (100,000 cells) on a cell culture dish with a glass bottom (35 mm, Greiner Bio-one). In the following day cells were incubated for two hours at 37° C. under various conditions: carboxyfluorescein (15 μM), Boc-FF (0.12 mM) and carboxyfluorescein (15 μM), Fmoc-FF-PEG2-PTR (0.3 mM) encapsulated with carboxyfluorescein (15 μM), PTR-3207-86 (0.3 mM), Fmoc-FF-PEG2-PTR (0.3 mM):Boc-FF (1:4) nanospheres encapsulated with carboxyfluorescein (15 μM). After incubation, cells were washed with PBS buffer and were treated with 10 μg/ml Concanavalin A (Con A) Alexa Fluor 647 Conjugate (Invitrogen, Carlsbad, Calif.) for 15 minutes and washed again with PBS. Live cell imaging was conducted using LSM 510 Meta confocal laser scanning microscope (Carl Zeiss, Jena, Germany).

With carboxyfluorescein the “fluorescence observed in cells (binding/uptake)” value was “No fluorescence was observed”.
